Data as given in ChEMBL document CHEMBL1135701, “Discovery of a 3-amino-6-phenyl-pyridazine derivative as a new synthetic antineuroinflammatory compound” (J Med Chem, 2002).

Columns and labels:
MAP kinase p38 = MAP kinase p38 (Homo sapiens, UniProt O15264+Q15759+Q16539+P53778); assay: Inhibition of p38 Mitogen-activated protein kinase; assay type: protein assay
[1] = target: cAMP-dependent protein kinase A (Bos taurus, UniProt P00515+P00517+P05131+P31322); assay: Inhibition of Protein kinase A (PKA) activity, Enzyme assay was done using gamma-[32P]ATP and synthetic peptide substrates; assay type: protein-complex assay
Protein kinase C (PKC) = assay: Inhibition of Protein kinase C (PKC) activity, Enzyme assay done using gamma-[32P]ATP and synthetic peptide substrates; parameters: species or system Rattus norvegicus
[2] = target: Myosin light chain kinase, smooth muscle (Gallus gallus, UniProt P11799); assay: Inhibition of Myosin Light Chain kinase (MLCK)
Sequence of Myosin light chain kinase, smooth muscle (P11799 whole entry): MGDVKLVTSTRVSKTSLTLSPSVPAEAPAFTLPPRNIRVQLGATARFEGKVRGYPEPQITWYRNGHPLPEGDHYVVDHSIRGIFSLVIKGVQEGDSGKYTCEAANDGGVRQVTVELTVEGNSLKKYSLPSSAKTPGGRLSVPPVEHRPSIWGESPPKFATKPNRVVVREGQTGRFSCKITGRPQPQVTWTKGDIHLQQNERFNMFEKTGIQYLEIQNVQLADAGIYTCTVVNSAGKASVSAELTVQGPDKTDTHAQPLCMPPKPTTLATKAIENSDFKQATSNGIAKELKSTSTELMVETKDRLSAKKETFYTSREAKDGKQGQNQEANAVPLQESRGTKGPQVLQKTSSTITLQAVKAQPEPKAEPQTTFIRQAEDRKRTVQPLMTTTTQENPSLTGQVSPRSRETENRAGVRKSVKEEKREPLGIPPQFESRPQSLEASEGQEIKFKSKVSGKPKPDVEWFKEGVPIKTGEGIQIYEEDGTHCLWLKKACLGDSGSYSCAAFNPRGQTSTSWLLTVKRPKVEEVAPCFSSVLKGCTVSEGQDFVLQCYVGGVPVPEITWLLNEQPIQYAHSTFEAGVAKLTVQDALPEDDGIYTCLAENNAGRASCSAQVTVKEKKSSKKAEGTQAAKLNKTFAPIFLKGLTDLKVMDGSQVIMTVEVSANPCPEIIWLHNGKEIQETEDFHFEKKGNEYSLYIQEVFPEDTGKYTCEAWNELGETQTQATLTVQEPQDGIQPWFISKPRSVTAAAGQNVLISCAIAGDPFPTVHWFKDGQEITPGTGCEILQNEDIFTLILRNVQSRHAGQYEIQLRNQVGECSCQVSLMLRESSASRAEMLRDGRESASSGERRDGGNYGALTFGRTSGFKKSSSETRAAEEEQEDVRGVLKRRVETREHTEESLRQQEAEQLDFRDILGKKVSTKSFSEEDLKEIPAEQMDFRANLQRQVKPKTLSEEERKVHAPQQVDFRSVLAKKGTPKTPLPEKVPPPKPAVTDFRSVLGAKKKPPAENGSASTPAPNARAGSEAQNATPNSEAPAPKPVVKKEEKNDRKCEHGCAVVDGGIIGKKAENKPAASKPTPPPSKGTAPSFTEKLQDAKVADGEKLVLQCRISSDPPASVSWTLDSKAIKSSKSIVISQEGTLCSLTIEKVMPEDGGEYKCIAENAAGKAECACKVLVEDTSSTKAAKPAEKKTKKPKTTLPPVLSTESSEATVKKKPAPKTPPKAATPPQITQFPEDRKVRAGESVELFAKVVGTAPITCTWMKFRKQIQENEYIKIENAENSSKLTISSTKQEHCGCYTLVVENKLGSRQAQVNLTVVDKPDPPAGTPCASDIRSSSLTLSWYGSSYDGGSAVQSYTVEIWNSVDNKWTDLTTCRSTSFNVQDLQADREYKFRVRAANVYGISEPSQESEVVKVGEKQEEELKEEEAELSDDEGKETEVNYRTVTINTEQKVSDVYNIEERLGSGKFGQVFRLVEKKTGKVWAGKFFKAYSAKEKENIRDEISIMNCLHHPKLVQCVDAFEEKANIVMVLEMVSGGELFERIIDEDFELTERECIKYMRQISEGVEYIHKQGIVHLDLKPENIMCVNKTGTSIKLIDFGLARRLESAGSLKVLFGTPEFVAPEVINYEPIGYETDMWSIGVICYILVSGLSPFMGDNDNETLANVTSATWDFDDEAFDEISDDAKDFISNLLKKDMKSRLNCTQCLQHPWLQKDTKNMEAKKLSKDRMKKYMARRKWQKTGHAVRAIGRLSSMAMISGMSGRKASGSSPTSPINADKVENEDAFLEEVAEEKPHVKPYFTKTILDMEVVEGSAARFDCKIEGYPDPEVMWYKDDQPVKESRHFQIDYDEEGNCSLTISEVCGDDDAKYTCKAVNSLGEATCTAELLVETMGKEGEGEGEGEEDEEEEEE

[3] = target: Ca2+/calmodulin-dependent protein kinase II (CaM kinase II) (Rattus norvegicus, UniProt P11275+P08413+P15791+P11730); assay: Inhibition of Calcium/calmodulin-dependent protein kinase type II (CaMKII) activity; assay type: protein assay

IC50 (MAP kinase p38) [µM] | IC50 [1] [µM] | IC50 (Protein kinase C (PKC)) [µM] | IC50 [2] [µM] | IC50 [3] [µM] | SMILES
> 100 | > 100 | > 100 | > 100 | 9.7 | N=c1cc2c(nn1CCCCCCCCCCC(=O)N1CCN(c3ncccn3)CC1)-c1ccccc1CC2
> 100 | > 100 | > 100 | – | 8.4 | COc1ccc(S(=O)(=O)N(CCO)c2ccccc2CN(C)C/C=C/c2ccc(Cl)cc2)cc1
